System: NOMO1
Experiment: cell viability relative to DMSO control; higher = less cytotoxic
Settings: 48 h
Method in brief: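 Leukemia cells (NOMO1 or SEM, 500 cells/well; P12-Ichikawa, 1000 cells/well) were seeded in 5 μl in 1536-well plates after at least four passages of adaptation to each medium. They received library compounds in DMSO by pin dosing, 11 threefold points from 47 μM to 0.79 nM. Luminescence with CellTiter-Glo One was read after 48 h at 37°C. Viability is stated per plate relative to DMSO wells, with cell-free wells as background.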

[1] = HPLM + 10% dialyzed FBS, 0.000781 µM
[2] = HPLM + 10% dialyzed FBS, 0.00234 µM
[3] = HPLM + 10% dialyzed FBS, 0.00702 µM
[4] = HPLM + 10% dialyzed FBS, 0.0211 µM
[5] = HPLM + 10% dialyzed FBS, 0.0632 µM
[6] = HPLM + 10% dialyzed FBS, 0.19 µM
[7] = HPLM + 10% dialyzed FBS, 0.569 µM
[8] = HPLM + 10% dialyzed FBS, 1.71 µM
[9] = HPLM + 10% dialyzed FBS, 5.12 µM
[10] = HPLM + 10% dialyzed FBS, 15.4 µM
[11] = HPLM + 10% dialyzed FBS, 46.1 µM
[12] = RPMI 5 mM glucose + 10% dialyzed FBS, 0.000781 µM
[13] = RPMI 5 mM glucose + 10% dialyzed FBS, 0.00234 µM
[14] = RPMI 5 mM glucose + 10% dialyzed FBS, 0.00702 µM
[15] = RPMI 5 mM glucose + 10% dialyzed FBS, 0.0211 µM
[16] = RPMI 5 mM glucose + 10% dialyzed FBS, 0.0632 µM
[17] = RPMI 5 mM glucose + 10% dialyzed FBS, 0.19 µM
[18] = RPMI 5 mM glucose + 10% dialyzed FBS, 0.569 µM
[19] = RPMI 5 mM glucose + 10% dialyzed FBS, 1.71 µM
[20] = RPMI 5 mM glucose + 10% dialyzed FBS, 5.12 µM
[21] = RPMI 5 mM glucose + 10% dialyzed FBS, 15.4 µM
[22] = RPMI 5 mM glucose + 10% dialyzed FBS, 46.1 µM
[23] = RPMI 5 mM glucose + 10% FBS, 0.000781 µM
[24] = RPMI 5 mM glucose + 10% FBS, 0.00234 µM
[25] = RPMI 5 mM glucose + 10% FBS, 0.00702 µM
[26] = RPMI 5 mM glucose + 10% FBS, 0.0211 µM
[27] = RPMI 5 mM glucose + 10% FBS, 0.0632 µM
[28] = RPMI 5 mM glucose + 10% FBS, 0.19 µM
[29] = RPMI 5 mM glucose + 10% FBS, 0.569 µM
[30] = RPMI 5 mM glucose + 10% FBS, 1.71 µM
[31] = RPMI 5 mM glucose + 10% FBS, 5.12 µM
[32] = RPMI 5 mM glucose + 10% FBS, 15.4 µM
[33] = RPMI 5 mM glucose + 10% FBS, 46.1 µM

Cc1cccc(Nc2nc(-c3ccncc3)cs2)c1
cell viability [1]: 96.3% | cell viability [2]: 138% | cell viability [3]: 121% | cell viability [4]: 142% | cell viability [5]: 137% | cell viability [6]: 140% | cell viability [7]: 111% | cell viability [8]: 145% | cell viability [9]: 142% | cell viability [10]: 136% | cell viability [11]: 134% | cell viability [12]: 122% | cell viability [13]: 121% | cell viability [14]: 128% | cell viability [15]: 123% | cell viability [16]: 125% | cell viability [17]: 135% | cell viability [18]: 134% | cell viability [19]: 129% | cell viability [20]: 128% | cell viability [21]: 134% | cell viability [22]: 107%

C[C@]12CCC(=O)C=C1CC[C@@H]1[C@@H]2CC[C@@]2(C)[C@H]1CC[C@]2(C)O
cell viability [1]: 109% | cell viability [2]: 116% | cell viability [3]: 115% | cell viability [4]: 85.3% | cell viability [5]: 110% | cell viability [6]: 102% | cell viability [7]: 108% | cell viability [8]: 102% | cell viability [9]: 99.1% | cell viability [10]: 96.5% | cell viability [11]: 90.2% | cell viability [23]: 85.1% | cell viability [24]: 89.6% | cell viability [25]: 88.9% | cell viability [26]: 97.2% | cell viability [27]: 86% | cell viability [28]: 96.5% | cell viability [29]: 91.1% | cell viability [30]: 86.8% | cell viability [31]: 98.7% | cell viability [32]: 87.7% | cell viability [33]: 83.4% | cell viability [12]: 107% | cell viability [13]: 93.8% | cell viability [14]: 96.1% | cell viability [15]: 86.5% | cell viability [16]: 105% | cell viability [17]: 93.1% | cell viability [18]: 91.6% | cell viability [19]: 98.1% | cell viability [20]: 90.9% | cell viability [21]: 91.6% | cell viability [22]: 90.7%

CNC[C@H](O)c1ccc(O)c(O)c1
cell viability [1]: 112% | cell viability [2]: 95.6% | cell viability [3]: 104% | cell viability [4]: 104% | cell viability [5]: 96.9% | cell viability [6]: 102% | cell viability [7]: 88.1% | cell viability [8]: 89.2% | cell viability [9]: 86.3% | cell viability [10]: 77.1% | cell viability [11]: 73% | cell viability [23]: 84.7% | cell viability [24]: 89.8% | cell viability [25]: 83% | cell viability [26]: 87.6% | cell viability [27]: 84.6% | cell viability [28]: 80.5% | cell viability [29]: 90.7% | cell viability [30]: 89.9% | cell viability [31]: 80% | cell viability [32]: 76.7% | cell viability [33]: 77.9% | cell viability [12]: 84.2% | cell viability [13]: 90.4% | cell viability [14]: 93.8% | cell viability [15]: 85.6% | cell viability [16]: 95.9% | cell viability [17]: 91.3% | cell viability [18]: 84.2% | cell viability [19]: 75.5% | cell viability [20]: 84.6% | cell viability [21]: 76.5% | cell viability [22]: 77.7%

C[C@@H]\1CC(=O)N\N=C1C2=CC=C(NN=C(C#N)C#N)C=C2
cell viability [1]: 90.8% | cell viability [2]: 89.5% | cell viability [3]: 107% | cell viability [4]: 95.5% | cell viability [5]: 99.9% | cell viability [6]: 90.2% | cell viability [7]: 102% | cell viability [8]: 87.6% | cell viability [9]: 88.5% | cell viability [10]: 86.8% | cell viability [11]: 4.87% | cell viability [23]: 93.9% | cell viability [24]: 87.6% | cell viability [25]: 92.6% | cell viability [26]: 90.6% | cell viability [27]: 87.9% | cell viability [28]: 96.7% | cell viability [29]: 85.7% | cell viability [30]: 97.5% | cell viability [31]: 89.2% | cell viability [32]: 80% | cell viability [33]: 7.6% | cell viability [12]: 85.3% | cell viability [13]: 94.7% | cell viability [14]: 93.4% | cell viability [15]: 90.7% | cell viability [16]: 95.3% | cell viability [17]: 92.6% | cell viability [18]: 96.3% | cell viability [19]: 89% | cell viability [20]: 87.1% | cell viability [21]: 83.2% | cell viability [22]: 9.26%

CCC(C)(C)c1ccc(CC(C)CN2C[C@@H](C)O[C@@H](C)C2)cc1 (some centres undefined)
cell viability [1]: 87.4% | cell viability [2]: 91.8% | cell viability [3]: 87.9% | cell viability [4]: 82% | cell viability [5]: 93.3% | cell viability [6]: 84.8% | cell viability [7]: 97% | cell viability [8]: 80.9% | cell viability [9]: 93.6% | cell viability [10]: 87.1% | cell viability [11]: 87.9% | cell viability [23]: 71.5% | cell viability [24]: 74.7% | cell viability [25]: 73.5% | cell viability [26]: 77.9% | cell viability [27]: 77.5% | cell viability [28]: 76.5% | cell viability [29]: 75.8% | cell viability [30]: 82.3% | cell viability [31]: 77.9% | cell viability [32]: 80.7% | cell viability [33]: 77.5% | cell viability [12]: 69.8% | cell viability [13]: 87.9% | cell viability [14]: 78.8% | cell viability [15]: 77% | cell viability [16]: 83.4% | cell viability [17]: 82% | cell viability [18]: 90.2% | cell viability [19]: 84% | cell viability [20]: 85.2% | cell viability [21]: 86.2% | cell viability [22]: 88%

CCN1\C=C(\C(O)=O)C(=O)C2=CC=C(C)N=C12
cell viability [1]: 75.3% | cell viability [2]: 87.7% | cell viability [3]: 99.4% | cell viability [4]: 103% | cell viability [5]: 102% | cell viability [6]: 116% | cell viability [7]: 95.8% | cell viability [8]: 100% | cell viability [9]: 81.7% | cell viability [10]: 88.1% | cell viability [11]: 47.4% | cell viability [23]: 81.9% | cell viability [24]: 103% | cell viability [25]: 98.2% | cell viability [26]: 89.1% | cell viability [27]: 103% | cell viability [28]: 96.6% | cell viability [29]: 100% | cell viability [30]: 91% | cell viability [31]: 99.9% | cell viability [32]: 90.6% | cell viability [33]: 56% | cell viability [12]: 66.6% | cell viability [13]: 76.6% | cell viability [14]: 71.2% | cell viability [15]: 80.1% | cell viability [16]: 83.2% | cell viability [17]: 83.5% | cell viability [18]: 80.5% | cell viability [19]: 89.5% | cell viability [20]: 82.5% | cell viability [21]: 81.6% | cell viability [22]: 61.7%

Cc1c(C(=O)NN2CCCCC2)nn(-c2ccc(Cl)cc2Cl)c1-c1ccc(Cl)cc1
cell viability [12]: 122% | cell viability [13]: 120% | cell viability [14]: 125% | cell viability [15]: 143% | cell viability [16]: 128% | cell viability [17]: 138% | cell viability [18]: 76.3% | cell viability [19]: 46.8% | cell viability [20]: 32.8% | cell viability [21]: 28.1% | cell viability [22]: 36%

CC(C)C(=O)Oc1ccc(CO)cc1[C@H](CCN(C(C)C)C(C)C)c1ccccc1
cell viability [1]: 99.1% | cell viability [2]: 104% | cell viability [3]: 85.7% | cell viability [4]: 87% | cell viability [5]: 85.6% | cell viability [6]: 91.8% | cell viability [7]: 93.3% | cell viability [8]: 88.9% | cell viability [9]: 78.9% | cell viability [10]: 81.1% | cell viability [11]: 71.7% | cell viability [23]: 85.2% | cell viability [24]: 78.8% | cell viability [25]: 88.8% | cell viability [26]: 93.3% | cell viability [27]: 82.5% | cell viability [28]: 76% | cell viability [29]: 80% | cell viability [30]: 83.4% | cell viability [31]: 85.2% | cell viability [32]: 79.1% | cell viability [33]: 78.4% | cell viability [12]: 78.3% | cell viability [13]: 79.6% | cell viability [14]: 86.4% | cell viability [15]: 78.9% | cell viability [16]: 73.8% | cell viability [17]: 79.2% | cell viability [18]: 73.5% | cell viability [19]: 80.8% | cell viability [20]: 77.4% | cell viability [21]: 82.5% | cell viability [22]: 79.1%

COc1ncc(-c2ccc3nccc(-c4ccnnc4)c3c2)cc1N[S+](=O)([O-])c1ccc(F)cc1F
cell viability [1]: 95.5% | cell viability [2]: 81.2% | cell viability [3]: 76.8% | cell viability [4]: 89.6% | cell viability [5]: 75.1% | cell viability [6]: 66.3% | cell viability [7]: 60.5% | cell viability [8]: 45.8% | cell viability [9]: 41.7% | cell viability [10]: 31.9% | cell viability [11]: 29.7% | cell viability [23]: 121% | cell viability [24]: 96.1% | cell viability [25]: 92.3% | cell viability [26]: 79.8% | cell viability [27]: 76% | cell viability [28]: 72.8% | cell viability [29]: 69.7% | cell viability [30]: 43.1% | cell viability [31]: 29.9% | cell viability [32]: 27.8% | cell viability [33]: 21% | cell viability [12]: 104% | cell viability [13]: 92.1% | cell viability [14]: 86.2% | cell viability [15]: 76.6% | cell viability [16]: 72.9% | cell viability [17]: 62.6% | cell viability [18]: 64% | cell viability [19]: 44.7% | cell viability [20]: 38.1% | cell viability [21]: 29.7% | cell viability [22]: 19.9%
